According to BindingDB's records for doi:10.1016/j.bmcl.2005.04.054 (Schering-Plough Research Institute, 2005):

Experiment: Inhibitory concentration against BaF3 cell line expressed recombinant human CCR3 using the chemotaxis assay

With `O=C(NCC1CCCN(C2CCN(Cc3ccc(Cl)c(Cl)c3)CC2)C1)c1ccc2ncccc2c1` (stereo unspecified) [Quinoline-6-carboxylic acid [1'-(3,4-dichloro-benzyl)-[1,4']bipiperidinyl-3-ylmethyl]-amide] the IC50 was 0.136 µM.
